In patent publication US11723883B2, “Hydroxynorketamine for the use in the treatment of depression” (DEVELCO PHARMA SCHWEIZ AG, priority 2017, dated 2023):

What was measured:
[1] = Safety: adverse events in the dose-escalation study in healthy subjects
Method: (§1) A dose-escalation study was performed in five consecutive periods (7 days wash-out) in 15 healthy subjects (5 females, 20-25, BMI 19.4-27.6 kg/m2). The racemic analytes were measured using validated LC-MS/MS methods according to Hasan et al., 2017 (Hasan et al., Quantitative chiral and achiral determination of ketamine and its metabolites by LC-MS/MS in human serum, urine and fecal samples, Journal of Pharmaceutical and Biomedical Analysis, 2017, 139, 87-97).
(§2) In addition, 5 mg ketamine (in form of ketamine hydrochloride) solution was intravenously administered within 30 min in fasting state.
An adverse event (AE) therefore can be any unfavorable and unintended sign including an abnormal laboratory (or vital, ECG etc.) finding, symptom or disease temporally associated with the use of a medicinal (investigational) product, whether or not related to the medicinal (investigational) product.
A serious adverse event (SAE) is defined as any untoward medical occurrence that at any dose • results in death, or • is life-threatening, or • requires hospitalization or prolongation of existing hospitalization, or • results in persistent or significant disability/incapacity, or • is a congenital anomaly/birth defect
Adverse events (AE) were detected both by a standardized questionnaire on tolerability and by querying the subjects at the scheduled times. Furthermore, the subjects were asked to report any AE spontaneously.

[2] = Dose-escalation pharmacokinetics and metabolism study in 15 healthy subjects (LC-MS/MS)
Method: as §1, §2
The pharmacokinetics of ketamine and its metabolites norketamine and hydroxynorketamine were measured and depicted in the following table 1. AUC stands for the area under the curve, Cmax stands for the maximum plasma concentration, Tmax stands for the time to Cmax, F stands for absolute bioavailability, T1/2 stands for the apparent terminal half-life, AUCNK/K for the ratio of AUCNK to AUCK and AUCHNK/K for the ratio of AUCHNK to AUCK.
The maximum concentration (Cmax) and the time of maximum concentration (Tmax) were obtained directly from the measured concentration-time curves.
The area under the concentrations-time curve (AUC) was calculated with the measured data points from the time of administration until the last quantifiable concentration by the trapezoidal formula. The AUC was assessed up to the last sampling time above the limit of quantification and is extrapolated to infinity to obtain the AUC values.
Apparent Terminal half-life (T1/2) was calculated by the following equation T1/2=ln 2/λz.
The terminal elimination rate constant (λz) was evaluated from the terminal slope by log-linear regression analysis.
The absolute bioavailability (F) was calculated by the following equation Fabs=AUCoral/AUCiv×doseiv/doseoral. 4.2 Safety

[3] = test system: patients with major depressive disorder and bipolar depression; details: single intravenous 40-minute infusion; lasting 1 week; Zarate et al., 2012; cited from earlier work
mice = details: Zanos et al., 2016, cited from earlier work
[4] = Treatment A ketamine 5 mg i.v., AEs certainly, probably or possibly related
[5] = 5 mg ketamine i.v. infusion (30 min), fasting

For `CNC1(c2ccccc2Cl)CCCCC1=O` (racemic) [ketamine, 2-(2-chlorophenyl)-2-(methylamino) cyclohexan-1-one], the “Number of AEs” value ([1]; Treatment A (ketamine 5 mg i.v.)) was 10, the “Number of subjects reporting dizziness (nervous system disorders)” value [1, 4] was 6 and the “Number of subjects reporting palpitation (cardiac disorders)” value [1, 4] was 1. The “Number of subjects reporting tachycardia (cardiac disorder)” value [1, 4] was 1, the “Percent of subjects reporting dizziness (nervous system disorders)” value [1, 4] was 40% and the “Percent of subjects reporting palpitation (cardiac disorders)” value [1, 4] was 7%. For the same molecule, the “Percent of subjects reporting tachycardia (cardiac disorder)” value [1, 4] was 7%, the CL/F of ketamine [2, 5] was 1.67 ± 0.380 L/min and the CLM of ketamine [2, 5] was 268 ± 75.6 mL/min. It also gave a CLintestinal of ketamine [2, 5] of 0.046 ± 0.097 mL/min, an AUC ([2]; both, human, plasma, iv, 5 mg) of 52.3 ± 12.2 ng·h/mL and a CL renal ([2]; both, human, plasma, iv, 5 mg) of 33.6 ± 36.5 mL/min. For the same molecule, the Cmax ([2]; both, human, plasma, iv, 5 mg) was 29.9 ± 8.48 ng/mL, the MRT ([2]; both, human, plasma, iv, 5 mg) was 4.68 ± 2.01 h and the Vd ([2]; both, human, plasma, iv, 5 mg) was 6.58 ± 3.07 L/kg. The half-life ([2]; both, human, plasma, iv, 5 mg) was 5.89 ± 2.61 h and the “improvement in patients with major depressive disorder and bipolar depression” value [3] was “rapid improvement”.
In the case of `N[C@@]1(c2ccccc2Cl)CCC[C@@H](O)C1=O` [(2R,6R)-hydroxynorketamine], the ketamine-related side effects (mice) is listed as “lack ketamine-related side effects” and the antidepressant-related actions (mice; independent of NMDR-inhibition) is listed as “exerts antidepressant-related actions”.
